For the assay, the target named is T1, N-type Ca2+ channel (Homo sapiens, UniProt Q00975).
T1 construct: host or cells: IMR-32 cells, differentiated with dibutyryl cAMP and bromodeoxyuridine
Kind of assay: Measurement of N-type Ca2+ channel blocking potencies in IMR-32 cells using the fluorescent Ca2+ indicator Indo-1. It counts as cell-based. To be noted: for IC50: K+-stimulated Ca2+ flux, 5 μM nitrendipine to block L-type channels; for IMR 32 % of Blockade @ 1 μM / inhibition at 1 µM: 1 μM compound; for IMR 32 % of Blockade @ 10 μM / inhibition at 10 µM: 10 μM compound; for inhibition at 1 µM: read-out: IMR 32 % of Blockade @ 1 μM; for inhibition at 10 µM: read-out: IMR 32 % of Blockade @ 10 μM. On the procedure: Measurement of N-type Ca^2+ Channel Blocking Potencies of Compounds in IMR-32 Cells Using the Fluorescent Ca^2+Indicator Indo-1
IMR-32 cells are a human tumoral cell line of neural origin. […] Calcium flux into these cells may be induced by stimulation with elevated potassium concentrations. The L-channel component of calcium flux may be blocked by adding 5 μM nitrendipine. The remaining component of calcium entry into the IMR-32 cells is due to calcium flux through N-type calcium channels. Intracellular calcium concentrations are measured using the fluorescent calcium indicator Indo-1. The effect of drug concentration on calcium uptake is studied.
The IMR-32 cell line was obtained from the American Type Culture Collection (Rockville, Md.). Cells were grown in Eagle's Minimum Essential Medium with Earle's salts supplemented with 10% fetal bovine serum, 2 mM L-Gln and antibiotic/antimycotic mixture (Gibco). […] After 7 to 13 days of differentiation, cells were detached using 0.5 mM EDTA and loaded with 5 μM Indo-1 acetoxymethyl ester (Molecular Probes, Eugene, Oreg.) at 30° C. for 45 minutes. Loaded cells were washed twice, resuspended (˜10^7 cells/mL) in assay buffer (10 mM HEPES/Tris pH 7.4 in Hank's Balanced Salt Solution without bicarbonate or phenol red containing 0.5% bovine serum albumin) and kept on ice until use. Fluorescence measurements were carried out in a Photon Technology International (PTI, South Brunswick, N.J.) Model RF-F3004 spectrofluorometer with dual emission monochromators using excitation at […] and emission at 400 and 490 nm. The instrument was equipped with a thermostated cuvette holder with stirring capabilities as well as with a computer-controlled pump which allowed for reagent addition during measurement. Instrument control and data collection was done by PTI's OSCAR software running on an IBM compatible computer. Different concentrations of the test compounds (60 μL in dimethyl sulfoxide) were added to 5.94 mL of assay buffer containing approximately 3×10^6 loaded cells, and 5 μM Nitrendipine (in […] EtOH) to block L-type Ca^2+ channels. Samples were incubated for 10 minutes at 30° C. and then aliquoted into three 10×10 mm disposable acrylic cuvettes. Emission signals at 400 and 490 nm were acquired from each cuvette at 30° C. for 50 seconds. At 20 seconds after the start of reading, cells were depolarized by the addition of 160 μL of stimulation solution (1 M KCl, 68 mM CaCl2) to the cuvette via the computer-controlled pump. Ratio of dual emission signals (400 nm/490 nm), which is proportional to intracellular Ca^2+ concentration, was plotted against time, and the difference between maximal response after stimulation and basal value (before stimulation) was determined. Values obtained in this way were plotted as a function of drug concentration. IC50 values of test compounds were calculated by fitting a four-parameter logistic function to the data using the least squares method.

SMILES strings stand for the structures. Structures can show the parent of a compound that is named as a salt.

Experimental findings from patent US6495715B2, “Calcium channel blockers” (Warner-Lambert Company, priority 1997, dated 2002) are described below.

T1 sequence (Q00975 whole entry): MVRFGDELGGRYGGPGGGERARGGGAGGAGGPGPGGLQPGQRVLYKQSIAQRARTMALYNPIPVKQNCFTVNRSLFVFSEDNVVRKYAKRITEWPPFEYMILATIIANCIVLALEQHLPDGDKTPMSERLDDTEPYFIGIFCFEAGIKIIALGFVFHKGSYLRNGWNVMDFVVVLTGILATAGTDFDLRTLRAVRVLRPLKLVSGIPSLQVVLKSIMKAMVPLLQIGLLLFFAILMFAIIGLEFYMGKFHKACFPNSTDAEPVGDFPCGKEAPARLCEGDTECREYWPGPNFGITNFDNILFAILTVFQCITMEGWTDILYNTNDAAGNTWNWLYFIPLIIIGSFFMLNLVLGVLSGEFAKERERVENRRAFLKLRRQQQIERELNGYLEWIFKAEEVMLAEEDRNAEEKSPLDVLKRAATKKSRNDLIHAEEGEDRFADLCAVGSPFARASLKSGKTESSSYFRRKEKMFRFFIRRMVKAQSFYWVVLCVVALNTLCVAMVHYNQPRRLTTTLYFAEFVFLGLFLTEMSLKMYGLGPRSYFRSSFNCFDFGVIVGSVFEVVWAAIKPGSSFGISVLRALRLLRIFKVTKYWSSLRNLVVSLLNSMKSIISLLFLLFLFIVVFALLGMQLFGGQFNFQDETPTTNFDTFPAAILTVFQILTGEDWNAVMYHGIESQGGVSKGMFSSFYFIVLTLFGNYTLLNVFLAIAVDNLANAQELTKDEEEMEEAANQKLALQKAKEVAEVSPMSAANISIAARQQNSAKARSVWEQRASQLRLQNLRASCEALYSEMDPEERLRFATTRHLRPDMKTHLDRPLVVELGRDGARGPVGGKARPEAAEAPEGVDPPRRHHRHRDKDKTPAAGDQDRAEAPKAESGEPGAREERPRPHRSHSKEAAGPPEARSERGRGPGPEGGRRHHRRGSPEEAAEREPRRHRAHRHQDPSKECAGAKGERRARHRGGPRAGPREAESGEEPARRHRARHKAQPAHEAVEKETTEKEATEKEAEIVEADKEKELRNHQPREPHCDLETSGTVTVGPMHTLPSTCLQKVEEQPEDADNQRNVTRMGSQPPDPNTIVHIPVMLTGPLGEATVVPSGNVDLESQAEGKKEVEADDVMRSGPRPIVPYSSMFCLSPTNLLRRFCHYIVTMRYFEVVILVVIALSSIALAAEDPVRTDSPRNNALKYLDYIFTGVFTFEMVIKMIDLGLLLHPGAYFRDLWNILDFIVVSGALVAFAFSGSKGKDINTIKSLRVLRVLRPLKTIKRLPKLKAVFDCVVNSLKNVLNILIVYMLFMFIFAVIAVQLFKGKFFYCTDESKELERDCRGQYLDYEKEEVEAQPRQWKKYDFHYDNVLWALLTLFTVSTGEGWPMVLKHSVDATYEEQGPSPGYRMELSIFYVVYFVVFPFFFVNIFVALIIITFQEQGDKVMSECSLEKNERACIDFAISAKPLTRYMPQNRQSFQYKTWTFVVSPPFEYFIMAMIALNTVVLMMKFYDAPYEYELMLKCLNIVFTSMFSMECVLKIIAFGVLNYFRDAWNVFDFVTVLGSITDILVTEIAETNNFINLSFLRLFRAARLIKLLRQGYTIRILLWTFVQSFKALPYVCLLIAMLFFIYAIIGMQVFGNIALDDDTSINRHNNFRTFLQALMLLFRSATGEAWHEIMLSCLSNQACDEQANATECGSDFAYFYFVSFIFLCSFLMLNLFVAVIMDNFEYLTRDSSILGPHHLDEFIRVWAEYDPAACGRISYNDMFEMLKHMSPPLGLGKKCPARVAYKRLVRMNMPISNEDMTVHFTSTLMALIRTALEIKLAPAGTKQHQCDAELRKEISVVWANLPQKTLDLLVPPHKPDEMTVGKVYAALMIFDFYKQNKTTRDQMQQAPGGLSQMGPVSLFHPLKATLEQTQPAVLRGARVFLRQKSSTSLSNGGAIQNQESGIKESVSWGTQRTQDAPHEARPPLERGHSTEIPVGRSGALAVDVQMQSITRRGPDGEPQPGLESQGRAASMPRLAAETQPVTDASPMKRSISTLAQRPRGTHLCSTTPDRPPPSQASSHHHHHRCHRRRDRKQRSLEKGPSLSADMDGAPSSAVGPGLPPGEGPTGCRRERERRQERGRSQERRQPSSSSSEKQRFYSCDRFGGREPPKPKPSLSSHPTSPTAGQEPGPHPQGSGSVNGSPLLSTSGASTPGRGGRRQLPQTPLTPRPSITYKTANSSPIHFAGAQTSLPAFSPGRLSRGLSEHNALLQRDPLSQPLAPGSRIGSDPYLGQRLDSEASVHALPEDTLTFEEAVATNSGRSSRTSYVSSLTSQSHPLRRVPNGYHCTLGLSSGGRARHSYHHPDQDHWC
T1 sequence (P54289 25-956 partner limits assumed): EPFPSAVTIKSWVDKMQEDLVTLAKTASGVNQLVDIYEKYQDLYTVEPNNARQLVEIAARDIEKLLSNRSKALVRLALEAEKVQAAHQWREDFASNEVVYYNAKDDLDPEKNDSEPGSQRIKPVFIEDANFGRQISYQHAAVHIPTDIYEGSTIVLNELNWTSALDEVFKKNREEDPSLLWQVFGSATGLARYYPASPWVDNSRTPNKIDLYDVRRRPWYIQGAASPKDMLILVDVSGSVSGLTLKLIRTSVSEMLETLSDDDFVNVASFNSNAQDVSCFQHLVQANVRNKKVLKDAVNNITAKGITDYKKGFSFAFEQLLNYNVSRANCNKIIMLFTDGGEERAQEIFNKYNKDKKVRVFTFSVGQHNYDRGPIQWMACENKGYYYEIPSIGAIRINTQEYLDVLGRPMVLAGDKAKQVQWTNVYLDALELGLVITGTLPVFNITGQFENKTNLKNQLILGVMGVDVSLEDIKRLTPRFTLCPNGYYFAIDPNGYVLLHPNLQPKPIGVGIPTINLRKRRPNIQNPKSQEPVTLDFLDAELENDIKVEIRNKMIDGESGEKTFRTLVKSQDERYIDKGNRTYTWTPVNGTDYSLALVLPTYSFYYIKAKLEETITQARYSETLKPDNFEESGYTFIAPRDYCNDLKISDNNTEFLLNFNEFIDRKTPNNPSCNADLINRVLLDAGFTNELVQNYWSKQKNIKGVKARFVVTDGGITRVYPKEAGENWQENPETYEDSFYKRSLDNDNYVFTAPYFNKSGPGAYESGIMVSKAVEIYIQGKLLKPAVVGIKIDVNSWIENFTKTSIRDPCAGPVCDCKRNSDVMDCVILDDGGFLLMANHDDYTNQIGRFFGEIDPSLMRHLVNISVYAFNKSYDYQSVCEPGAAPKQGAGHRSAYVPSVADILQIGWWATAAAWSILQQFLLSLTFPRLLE
T1 sequence (P54289 957-1103 partner limits assumed): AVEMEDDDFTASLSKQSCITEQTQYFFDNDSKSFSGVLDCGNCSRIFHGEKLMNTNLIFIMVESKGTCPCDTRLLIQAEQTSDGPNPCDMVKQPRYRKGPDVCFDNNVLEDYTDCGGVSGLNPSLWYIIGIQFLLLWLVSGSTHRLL
T1 sequence (Q02641 whole entry partner): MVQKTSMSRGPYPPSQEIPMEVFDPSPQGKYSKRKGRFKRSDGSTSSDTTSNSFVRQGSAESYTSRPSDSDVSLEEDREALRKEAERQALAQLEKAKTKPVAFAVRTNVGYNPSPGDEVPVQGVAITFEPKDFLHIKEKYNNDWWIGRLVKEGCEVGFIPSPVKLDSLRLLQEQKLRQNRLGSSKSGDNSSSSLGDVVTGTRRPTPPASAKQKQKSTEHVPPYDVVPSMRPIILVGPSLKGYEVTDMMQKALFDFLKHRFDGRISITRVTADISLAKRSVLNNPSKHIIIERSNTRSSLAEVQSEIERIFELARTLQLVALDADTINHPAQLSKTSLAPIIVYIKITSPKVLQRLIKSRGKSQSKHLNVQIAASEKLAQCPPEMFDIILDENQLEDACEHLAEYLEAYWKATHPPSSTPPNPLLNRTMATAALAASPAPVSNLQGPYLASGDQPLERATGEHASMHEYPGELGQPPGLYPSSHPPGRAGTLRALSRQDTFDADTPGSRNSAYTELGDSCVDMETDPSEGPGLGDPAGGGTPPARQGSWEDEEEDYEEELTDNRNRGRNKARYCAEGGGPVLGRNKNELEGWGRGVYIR

A word on the IC50: it is the concentration needed to halve the response being measured. A low value points to greater potency in that assay. Regarding `CC(C)CCN(c1ccc(NCc2ccccn2)cc1)C1CCN(C(=O)[C@H](CC(C)C)NC(=O)N2CCCCCC2)CC1` [Example 40], the IC50 is 1100 nM.
Regarding `CC(C)=CCN(C[C@H](C)NC(=O)[C@H](CC(C)C)N(CC=C(C)C)CC=C(C)C)c1ccc(OCc2ccccc2)cc1` (relative stereo) [Example 19, [S-(R*,R*)]-2-{Bis]-(3-methyl-but-2-enylamino)-4-Methyl-pentanoic acid {2-[(4-benzyloxy-phenyl)-(3-methyl-but-2-enyl)-amino]-1-methyl-ethyl 1-amide], for the setting “5 μM nitrendipine”, the “IMR 32 % of Blockade @ 1 μM” value came to 74% and the “IMR 32 % of Blockade @ 10 μM” value worked out at 70%.
As for `CC(C)=CCN(c1ccc(OCc2ccccc2)cc1)C1CCN(C(=O)[C@H](N)CC(C)C)CC1` [Example 21, (R)-2-Amino-1-{4-[(4-benzyloxy-phenyl)-(3-methyl-but-2-enyl)-amino]-piperidin-1-yl}-4-methyl-pentan-1-one], where the note is “5 μM nitrendipine”, the inhibition at 1 µM is 43% and the inhibition at 10 µM is 92%.
`CC(C)=CCN[C@@H](CC(C)C)C(=O)N[C@@H](C)CN(CC=C(C)C)c1ccc(OCc2ccccc2)cc1` (relative stereo) [Example 15, [S-(R*,R*)]-4-Methyl-2-(3-methyl-but-2-enylamino)-pentanoic acid {2-[(4-benzyloxy-phenyl)-(3-methyl-but-2-enyl)-amino]-1-methyl-ethyl}-amide]: under “0.3 μM compound, 5 μM nitrendipine”, the “IMR 32 % of Blockade @ 0.3 μM” value worked out at 21%. Moreover, the “IMR 32 % of Blockade @ 3 μM” value (3 μM compound, 5 μM nitrendipine) is reported as 65%.
`CC(C)=CCN(C[C@H](C)NC(=O)[C@H](CC(C)C)N(C)C)c1ccc(OCc2ccccc2)cc1` (relative stereo) [Example 14, [S-(R*,R*)]-2-Dimethylamino-4-methyl-pentanoic acid {2-[(4-benzyloxy-phenyl)-(3-methyl-but-2-enyl)-amino]-1-methyl-ethyl}-amide]: under “5 μM nitrendipine”, the “IMR 32 % of Blockade @ 1 μM” value came to 36% and the “IMR 32 % of Blockade @ 10 μM” value is 86%.
`CC(C)=CCN(CC(C)(C)NC(=O)[C@H](CC(C)C)N(C)C1C=CCCC1)c1ccc(OCc2ccccc2)cc1` (stereo partly drawn) [Example 12, (S)-2-(Cyclohex-2-enyl-methyl-amino)-4-methyl-pentanoic acid {2-[(4-benzyloxy-phenyl)-(3-methyl-but-2-enyl)-amino]-1,1-dimethyl-ethyl}-amide] gave an IC50 of 630 nM.
Turning to `CC(C)CCN(c1ccc(NC(=O)OCc2ccccc2)cc1)C1CCN(C(=O)[C@H](CC(C)C)NC(=O)N2CCCCCC2)CC1` [Example 34, (S)-{4-[(1-{2-[(Azepane-1-carbonyl)-amino]-4-methyl-pentanoyl}-piperidin-4-yl)-(3-methyl-butyl)-amino]-phenyl}-carbamic acid benzyl ester], the inhibition at 1 µM (5 μM nitrendipine) was determined as 83%.
On to `CC(C)=CCN(c1ccc(OCc2ccccc2)cc1)C1CCN(C(=O)[C@H](CC(C)C)NCc2ccc[nH]2)CC1` [Example 27, (S)-1-{4-[(4-Benzyloxy-phenyl)-(3-methyl-but-2-enyl)-amino]-piperidin-1-yl}-4-methyl-2-[(1H-pyrrol-2-ylmethyl)-amino]-pentan-1-one], for which the 50% inhibitory concentration (IC50) turned out to be 390 nM.
`CC(C)=CCN(c1ccc(OCc2ccccc2)cc1)C1CCN(C(=O)[C@H](CC(C)C)NC2CCCCC2)CC1` [Example 26, (S)-1-{4-[(4-Benzyloxy-phenyl)-(3-methyl-but-2-enyl)-amino]-piperidin-1-yl}-2-cyclohexylamino-4-methyl-pentan-1-one] yielded a half-inhibitory concentration (IC50) of 510 nM.
For the molecule `CC(C)C[C@H](NC(=O)N1CCCCCC1)C(=O)N1CCC(N(Cc2ccccc2)c2ccc(OCc3ccccc3)cc2)CC1` [Example 31, (S)-Azepane-1-carboxylic acid (1-{4-[benzyl-(4-benzyloxy-phenyl)-amino]-piperidine-1-carbonyl}-3-methyl-butyl)-amide], it took 430 nM to reach half-maximal inhibition (IC50).
For `CC(C)=CCN(CC(C)(C)NC(=O)[C@H](CC(C)C)N(C)CCC(C)C)c1ccc(OCc2ccccc2)cc1` [Example 11, (S)-4-Methyl-2-[methyl-(3-methyl-butyl)-amino]-pentanoic acid {2-[(4-benzyloxy-phenyl)-(3-methyl-but-2-enyl)-amino]-1.1-dimethyl-ethyl}-amide], for the setting “5 μM nitrendipine”, the “IMR 32 % of Blockade @ 1 μM” value is recorded as 49% and the “IMR 32 % of Blockade @ 10 μM” value is on record as 91%.
The molecule `CC(C)=CCN(CC(C)(C)NC(=O)[C@H](CC(C)C)N(C)C)c1ccc(OCc2ccccc2)cc1` [Example 9, (S)-2-Dimethylamino-4-methyl-pentanoic acid {2-[(4-benzyloxy-phenyl)-(3-methyl-but-2-enyl)-amino]-1,1-dimethyl-ethyl}-amide] registered an IC50 of 1600 nM.
Still for that read-out and setting: with `CC(C)=CCN(c1ccc(NC(=O)OCc2ccccc2)cc1)C1CCN(C(=O)[C@H](CC(C)C)NC(=O)N2CCCCCC2)CC1` [Example 33, (S)-{4-[(1-{2-[(Azepane-1-carbonyl)-amino]-4-methyl-pentanoyl}-piperidin-4-yl)-(3-methyl-but-2-enyl)-amino]-phenyl}-carbamic acid benzyl ester] the figure was 170 nM.
Turning to `CC(C)=CCN(C[C@H](C)NC(=O)[C@H](CC(C)C)N(CCC(C)C)CCC(C)C)c1ccc(OCc2ccccc2)cc1` (relative stereo) [Example 18, [S-(R*,R*)]-2-[Bis-(3-methyl-butyl)-amino]-4-methyl-pentanoic acid {2-[(4-benzyloxy-phenyl)-(3-methyl-but-2-enyl)-amino]-1-methyl-ethyl}-amide], where the note is “5 μM nitrendipine”, the “IMR 32 % of Blockade @ 1 μM” value was 67% and the “IMR 32 % of Blockade @ 10 μM” value is 71%.
In turn, `CC(C)=CCN(c1ccc(OCc2ccccc2)cc1)C1CCN(C(=O)[C@H](CC(C)C)NC(=O)N2CCCCCC2)CC1` [Example 5, (S)-Azepane-1-carboxylic acid (1-{4-[(4-benzyloxy-phenyl)-(3-methyl-but-2-enyl)-amino]-piperidine-1-carbonyl}-3-methyl-butyl)-amide hydrochloride salt] yielded an IC50 of 500 nM.
Consider `CC(C)=CCN(C[C@H](C)NC(=O)[C@H](CC(C)C)NC(=O)N1CCCCCC1)c1ccc(OCc2ccccc2)cc1` (relative stereo) [Example 2, [S-(R*,R*)]-Azepane-1-carboxylic acid (1-{2-[(4-benzyloxy-phenyl)-(3-methyl-but-2-enyl)-amino]-1-methyl-ethylcarbamoyl}-3-methyl-butyl)-amide], for which, where the note is “5 μM nitrendipine”, the “IMR 32 % of Blockade @ 1 μM” value was found to be 50% @ 1.
For `CC(C)=CCN(c1ccc(C#CC2(O)CCCCC2)cc1)C1CCN(C(=O)C(CC(C)C)NC(=O)N2CCCCCC2)CC1` (stereo in doubt) [Example 43, (S)-Azepane-1-carboxylic acid (1-{4-[[4-(1-hydroxy-cyclohexylethynyl)-phenyl]-(3-methyl-but-2-enyl)-amino]-piperidine-1-carbonyl}-3-methyl-butyl)-amide], the IC50 is 3400 nM. In other words, the single-digit micromolar range.
The same measure, in the same setting: the figure for `CC(C)=CCN(CC(C)(C)NC(=O)[C@H](CC(C)C)N(C)Cc1ccc(C(C)(C)C)cc1)c1ccc(OCc2ccccc2)cc1` [Example 13, (S)-2-[(4-tert-Butyl-benzyl)-methyl-amino]-4-methyl-pentanoic acid {2-[(4-benzyloxy-phenyl)-(3-methyl-but-2-enyl)-amino]-1.1-dimethyl-ethyl}-amide] is 5600 nM; for `CC(C)CCN(c1ccc(NCc2ccccc2)cc1)C1CCN(C(=O)[C@H](CC(C)C)NC(=O)N2CCCCCC2)CC1` [Example 39, (S)-Azepane-1-carboxylic acid (1-{4-[(4-benzylamino-phenyl)-(3-methyl-butyl)-amino]-piperidine-1-carbonyl}-3-methyl-butyl)-amide] it is 400 nM.
As to `CC(C)C[C@H](NC(=O)N1CCCCCC1)C(=O)NC(C)(C)CN(c1ccc(OCc2ccccc2)cc1)C1C=CCCC1` (stereo partly drawn) [Example 8, (S)-Azepane-1-carboxylic acid (1-{2-[(4-benzyloxy-phenyl)-cyclohex-2-enyl-amino]-1,1-dimethyl-ethylcarbamoyl}-3-methyl-butyl)-amide], under “5 μM nitrendipine”, the inhibition at 1 µM is 55% and the inhibition at 10 µM came out at 76%.
